Measurements as given in US20230414617A1, “PHARMACEUTICAL COMPOSITION COMPRISING ACID-BASE NEUTRALIZATION COMBINATION AND APPLICATION THEREOF” (CHENGDU KUACHANGAOPU MEDICAL TECHNOLOGY CO., LTD., priority 2020, published 2023).
Counter-ions that a name gives are not always drawn.

Experiments:
breast cancer 4T1 cells [1] = assay: Tumor inhibition, breast cancer 4T1 transplantation tumor (Example 7); type: in vivo, BALB/c mouse; conditions: intratumoral; for Tumor weight (x ± s): 150 ul/mouse, once every 3 days x3, 5th day after end; for Tumor inhibition rate: vs negative control
Procedure: (§1) In the following examples of the present invention, the co-administration pharmaceutical efficacies of drug A and drug B combination administration was determined by ratio q of actual pharmaceutical efficacy/expected pharmaceutical efficacy according to Zhengjun JIN method, as follows.
In an experiment, the test animal was a BALB/c mouse, the modeling cells were breast cancer 4T1 cells, and the transplantation tumor was modeled at 1×10^6 cells/mouse under the skin of the animal's right axilla. […] The negative controls and study drugs were administered intraperitoneally (groups 02, 11 and 15) and intratumorally (other study groups), respectively. All groups were dosed once every 3 days, for a total of 3 times, […], with an injection volume of 150 ul/mouse. On the 5th day after the administration was ended, the animals were euthanized, and the tumor weight was measured after anatomy to the animals. The tumor inhibition rate was calculated from the negative control group.

[2] = pH of the study drug aqueous solution; type: physicochemical; conditions: aqueous solution
breast cancer 4T1 cells [3] = assay: Tumor inhibition, breast cancer 4T1 transplantation tumor (Example 6); type: in vivo, BALB/c mouse; conditions: intratumoral; for Tumor weight (x ± s): 150 μl/mouse, once every 3 days x3, 5th day after end; for Tumor inhibition rate: vs negative control
Procedure: as §1
(§2) In an experiment, the test animal was a BALB/c mouse, the modeling cells were breast cancer 4T1 cells, and the transplantation tumor was modeled at 1×10^5 cells/mouse under the skin of the animal's right axilla. Successfully modeled experimental animals (with an average tumor volume of 324 mm^3) were divided into 1 negative control group (group 0) and 9 drug study groups (groups 1-9). […] Each group was administered by intratumoral injection once every 3 days for a total of 3 times, each time at an injection dose of 150 μl/mouse. On the 5th day after the administration was ended, the animals were euthanized, and the tumor weight was measured after anatomy to the animals. The tumor inhibition rate was calculated from the negative control group.

[4] = tested on: mouse liver cancer Hepa1-6 cells; assay: Series B: tumor inhibition, Hepa1-6 transplantation tumor in 8-month-old mice (Example 10); type: in vivo; conditions: one intratumoral injection 100 μl/mouse; for r'3d, tumor inhibition rate (tumor volume): day 3; for r'14d, tumor inhibition rate (tumor volume): day 14
Procedure: The animals in series B were modeled in 8-month-old mice as a middle-aged and elderly patient model, which was not consistent with the commonly used young patient model in terms of tumor formation, tumor histomorphology, and body immunocompetence. […] The model animals were randomly divided into 13 groups. Each group was administered once by intratumoral injection according to the drug grouping in Table 11 with an injection volume of 100 μl/mouse.
The actual/expected ratio […] for short-term drug efficacy and the actual/expected ratio q14d for medium-term drug efficacy were calculated based on the drug efficacies (r′3d, […]) at different times (day 3, day 14), respectively.

breast cancer 4T1 cells [5] = assay: Tumor inhibition, breast cancer 4T1 transplantation tumor (Example 8); type: in vivo, BALB/c mouse; conditions: intratumoral; for Tumor weight (x ± s): 150 μl/mouse, once every 3 days x3, 5th day after end; for Tumor inhibition rate: vs negative control
Procedure: as §1
as §2, with “336” for “324”, “16” for “9”, “1-16).” for “1-9).”

breast cancer 4T1 cells [6] = assay: Tumor inhibition, breast cancer 4T1 transplantation tumor (Example 3); type: in vivo, BALB/c mouse; conditions: intratumoral; for Tumor weight (x ± s): 150 μl/mouse, once every 3 days x3, 5th day after end; for Tumor inhibition rate: vs negative control
Procedure: as §1
as §2, with “1×10^6” for “1×10^5”, “axilla.” for “axilla. Successfully modeled experimental animals (with an average tumor volume of 324 mm^3) were divided into 1 negative control group (group 0) and 9 drug study groups (groups 1-9).”, “determined” for “measured”

breast cancer 4T1 cells [7] = assay: Tumor inhibition, breast cancer 4T1 transplantation tumor (Example 4); type: in vivo, BALB/c mice; conditions: intratumoral; for Tumor weight (x ± s): 150 μl/mouse, once every 3 days x3, 5th day after end; for Tumor inhibition rate: vs negative control
Procedure: as §1
In another experiment, the test animal was BALB/c mice, the modeling cells were breast cancer 4T1 cells, and the transplantation tumor was modeled at 1×10^6 cells/mouse under the skin of the animal's right axilla. Successfully modeled experimental animals (average tumor volume 307 mm^3) were randomly divided into 1 negative control group (group 0) and 13 drug study groups (groups 1-13). […] Each group was administered by intratumoral injection once every 3 days for a total of 3 times, each time at an injection dose of 150 μl/mouse. On the 5th day after the administration was ended, the animals were euthanized, and the tumor weight was measured after anatomy to the animals. The tumor inhibition rate was calculated from the negative control group.

breast cancer 4T1 cells [8] = assay: Tumor inhibition, breast cancer 4T1 transplantation tumor (Example 5); type: in vivo, BALB/c mouse; conditions: intratumoral; for Tumor weight (x ± s): once every 3 days x3, 5th day after end; for Tumor inhibition rate: vs negative control
Procedure: as §1
as §2, with “In one” for “In an”, “at 1×10^6” for “at 1×10^5”, “axilla.” for “axilla. Successfully modeled experimental animals (with an average tumor volume of 324 mm^3) were divided into 1 negative control group (group 0) and 9 drug study groups (groups 1-9).”, “[…].” for “150 μl/mouse.”

[9] = study drugs of Example 6 (Table 8)
[10] = study drugs of Example 3 (Table 5)
[11] = study drugs of Example 4 (Table 6)
[12] = study drugs of Example 5 (Table 7)

CN(C)c1ccc2nc3ccc(=[N+](C)C)cc-3sc2c1 [0.3% methylene blue, methylene blue]
Tumor weight (x ± s) (breast cancer 4T1 cells [1]): 2.11 ± 0.29 g
Tumor inhibition rate (breast cancer 4T1 cells [1]): 3%

Cl [0.4% hydrochloric acid, hydrochloric acid]
pH [2, 9]: 0.1
Tumor weight (x ± s) (breast cancer 4T1 cells [3]): 1.65 ± 0.21 g
Tumor inhibition rate (breast cancer 4T1 cells [3]): 21%

O=c1[nH]cc(F)c(=O)[nH]1 [0.25% 5-fluorouracil, 5-fluorouracil]
Tumor weight (x ± s) (breast cancer 4T1 cells [1]): 1.94 ± 0.33 g
Tumor inhibition rate (breast cancer 4T1 cells [1]): 11%

O=c1[nH]cc(F)c(=O)[nH]1 [1% 5-fluorouracil, 5-fluorouracil]
Tumor weight (x ± s) (breast cancer 4T1 cells [1]): 1.07 ± 0.26 g
Tumor inhibition rate (breast cancer 4T1 cells [1]): 51%
r'3d, tumor inhibition rate (tumor volume) [4]: 26.8%
r'14d, tumor inhibition rate (tumor volume) [4]: 3.1%
Tumor weight (x ± s) (breast cancer 4T1 cells [5]): 1.10 ± 0.26 g
Tumor inhibition rate (breast cancer 4T1 cells [5]): 51%

[Na+].[OH-] [1% NaOH, sodium hydroxide]
pH [2, 10]: 13.4
Tumor weight (x ± s) (breast cancer 4T1 cells [6]): 1.41 ± 0.23 g
Tumor inhibition rate (breast cancer 4T1 cells [6]): 42%

CN(C)c1ccc2nc3ccc(=[N+](C)C)cc-3sc2c1 [1% methylene blue, methylene blue]
Tumor weight (x ± s) (breast cancer 4T1 cells [1]): 1.72 ± 0.27 g
Tumor inhibition rate (breast cancer 4T1 cells [1]): 21%
r'3d, tumor inhibition rate (tumor volume) [4]: 27.8%
r'14d, tumor inhibition rate (tumor volume) [4]: 16.9%
Tumor weight (x ± s) (breast cancer 4T1 cells [5]): 1.73 ± 0.23 g
Tumor inhibition rate (breast cancer 4T1 cells [5]): 23%

CCN(CC)c1ccc(C(=C2C=CC(=[N+](CC)CC)C=C2)c2cc(O)c(S(=O)(=O)O)cc2S(=O)(=O)O)cc1 [1% patent blue, patent blue]
Tumor weight (x ± s) (breast cancer 4T1 cells [5]): 1.71 ± 0.25 g
Tumor inhibition rate (breast cancer 4T1 cells [5]): 24%

[Cl-].[K+] [2% KCl, potassium chloride]
Tumor weight (x ± s) (breast cancer 4T1 cells [6]): 2.19 ± 0.31 g
Tumor inhibition rate (breast cancer 4T1 cells [6]): 11%

O=C([O-])O.[Na+] [2% sodium bicarbonate, sodium bicarbonate]
pH [2, 11]: 8.2
Tumor weight (x ± s) (breast cancer 4T1 cells [7]): 2.10 ± 0.25 g
Tumor inhibition rate (breast cancer 4T1 cells [7]): 7%

O=C([O-])[O-].[Na+].[Na+] [2.8% sodium carbonate, sodium carbonate]
pH [2, 11]: 10.9
Tumor weight (x ± s) (breast cancer 4T1 cells [7]): 2.10 ± 0.27 g
Tumor inhibition rate (breast cancer 4T1 cells [7]): 7%

CC(=O)O [3% acetic acid, acetic acid]
pH [2, 12]: 2.6
Tumor weight (x ± s) (breast cancer 4T1 cells [8]): 1.85 ± 0.26 g
Tumor inhibition rate (breast cancer 4T1 cells [8]): 15%

C=C[C@H]1C[N@@]2CC[C@H]1C[C@H]2[C@H](O)c1ccnc2ccc(OC)cc12 [3% quinine monohydrochloride, quinine monohydrochloride]
Tumor weight (x ± s) (breast cancer 4T1 cells [5]; monohydrochloride): 1.71 ± 0.26 g
Tumor inhibition rate (breast cancer 4T1 cells [5]; monohydrochloride): 24%

Cl [3.5% hydrochloric acid, hydrochloric acid]
pH [2, 9]: 0.1
Tumor weight (x ± s) (breast cancer 4T1 cells [3]): 0.82 ± 0.18 g
Tumor inhibition rate (breast cancer 4T1 cells [3]): 71%

O=C([O-])O.[Na+] [4% sodium bicarbonate, sodium bicarbonate]
pH [2, 10]: 8.2
pH [2, 12]: 8.2
Tumor weight (x ± s) (breast cancer 4T1 cells [6]): 1.87 ± 0.22 g
Tumor inhibition rate (breast cancer 4T1 cells [6]): 23%
Tumor weight (x ± s) (breast cancer 4T1 cells [8]): 1.68 ± 0.27 g
Tumor inhibition rate (breast cancer 4T1 cells [8]): 23%
